The values below come from article PMC12748989 (Nature Communications, 2025).

One assay deals with PBMC. Particulars: 12.5 µM.

With `CC[C@H](C)[C@H](N)C(=O)N[C@@H](CC(N)=O)C(=O)N[C@@H](CC(C)C)C(=O)N[C@@H](CCCCN)C(=O)N[C@@H](C)C(=O)N[C@@H](CC(C)C)C(=O)NCC(=O)N[C@@H](C)C(=O)N[C@@H](CC(C)C)C(=O)N[C@@H](C)C(=O)N[C@@H](CCCCN)C(=O)N[C@@H](CCCCN)C(=O)N[C@H](C(=O)N[C@@H](CC(C)C)C(N)=O)[C@@H](C)CC` [G7], the “Average (percentage cell inhibition), Dmastoparan MDA-MB231 12.5uM” value in the assay with MDA-MB-231 cells turned out to be 49.0864%. Besides, the “Average (percentage cell inhibition), Mastoparan PBMC” value with PBMC amounted to 11.7718%.

As to `CC[C@H](C)[C@H](N)C(=O)N[C@@H](CC(N)=O)C(=O)N[C@@H](CC(C)C)C(=O)N[C@@H](CCCCN)C(=O)N[C@@H](C)C(=O)N[C@@H](CC(C)C)C(=O)N[C@@H](C)C(=O)N[C@@H](C)C(=O)N[C@@H](CC(C)C)C(=O)N[C@@H](C)C(=O)N[C@@H](CCCCN)C(=O)N[C@@H](CCCCN)C(=O)N[C@@H](Cc1c[nH]c2ccccc12)C(=O)N[C@@H](CC(C)C)C(N)=O` [W13], the “Average (percentage cell inhibition), Dmastoparan MDA-MB231 12.5uM” value in the assay on MDA-MB-231 cells was 70.7641%. In addition, the “Average (percentage cell inhibition), Mastoparan PBMC” value with PBMC is given as 24.9289%.

As to `CC[C@H](C)[C@H](N)C(=O)N[C@@H](CC(N)=O)C(=O)N[C@@H](CC(C)C)C(=O)N[C@@H](CCCCN)C(=O)N[C@@H](C)C(=O)N[C@@H](CC(C)C)C(=O)N[C@@H](CCCCN)C(=O)N[C@@H](C)C(=O)N[C@@H](CC(C)C)C(=O)N[C@@H](C)C(=O)N[C@@H](CCCCN)C(=O)N[C@@H](CCCCN)C(=O)N[C@H](C(=O)N[C@@H](CC(C)C)C(N)=O)[C@@H](C)CC` [K7], in the assay with MDA-MB-231 cells, the “Average (percentage cell inhibition), Dmastoparan MDA-MB231 12.5uM” value is given as 38.2404%. For the same compound, in the assay on PBMC, the “Average (percentage cell inhibition), Mastoparan PBMC” value was determined as 5.806%.

Regarding `CC[C@H](C)[C@H](N)C(=O)N[C@@H](CC(N)=O)C(=O)N[C@@H](CC(C)C)C(=O)N[C@@H](CCCCN)C(=O)N[C@@H](C)C(=O)N[C@@H](CC(C)C)C(=O)N[C@H](C(=O)N[C@@H](C)C(=O)N[C@@H](CC(C)C)C(=O)N[C@@H](C)C(=O)N[C@@H](CCCCN)C(=O)N[C@@H](CCCCN)C(=O)N[C@H](C(=O)N[C@@H](CC(C)C)C(N)=O)[C@@H](C)CC)[C@@H](C)O` [T7], the “Average (percentage cell inhibition), Dmastoparan MDA-MB231 12.5uM” value in the assay with MDA-MB-231 cells was found to be 29.9324%. The “Average (percentage cell inhibition), Mastoparan PBMC” value in the assay on PBMC worked out at 3.741%.

In the case of `CC[C@H](C)[C@H](N)C(=O)N[C@@H](CC(N)=O)C(=O)N[C@@H](CC(C)C)C(=O)N[C@@H](CCCCN)C(=O)N[C@@H](C)C(=O)N[C@@H](CCC(N)=O)C(=O)N[C@@H](C)C(=O)N[C@@H](C)C(=O)N[C@@H](CC(C)C)C(=O)N[C@@H](C)C(=O)N[C@@H](CCCCN)C(=O)N[C@@H](CCCCN)C(=O)N[C@H](C(=O)N[C@@H](CC(C)C)C(N)=O)[C@@H](C)CC` [Q6], the “Average (percentage cell inhibition), Dmastoparan MDA-MB231 12.5uM” value in the assay with MDA-MB-231 cells is reported as -10.4473%. Also, the “Average (percentage cell inhibition), Mastoparan PBMC” value with PBMC is -3.273%.

On to `CC[C@H](C)[C@H](NC(=O)[C@H](CCCCN)NC(=O)[C@H](CCCCN)NC(=O)[C@H](C)NC(=O)[C@H](CC(C)C)NC(=O)[C@H](C)NC(=O)[C@H](C)NC(=O)[C@H](CC(C)C)NC(=O)[C@H](C)NC(=O)[C@H](CCCCN)NC(=O)[C@H](CC(C)C)NC(=O)[C@H](CC(N)=O)NC(=O)[C@@H](N)CCCCN)C(=O)N[C@@H](CC(C)C)C(N)=O` [K1], for which the “Average (percentage cell inhibition), Dmastoparan MDA-MB231 12.5uM” value with MDA-MB-231 cells turned out to be 35.9182%. In the assay on PBMC, the “Average (percentage cell inhibition), Mastoparan PBMC” value was found to be 1.227%.

Consider `CC[C@H](C)[C@H](N)C(=O)N[C@@H](CC(N)=O)C(=O)N[C@@H](CC(C)C)C(=O)N[C@@H](CCCCN)C(=O)N[C@@H](C)C(=O)N[C@@H](CC(C)C)C(=O)N[C@@H](C)C(=O)N[C@@H](C)C(=O)N[C@@H](CC(C)C)C(=O)N[C@@H](C)C(=O)N[C@@H](CCCCN)C(=O)N[C@H](C(=O)N[C@H](C(=O)N[C@@H](CC(C)C)C(N)=O)[C@@H](C)CC)C(C)C` [V12], for which the “Average (percentage cell inhibition), Dmastoparan MDA-MB231 12.5uM” value in the assay on MDA-MB-231 cells came to 51.0657%. The “Average (percentage cell inhibition), Mastoparan PBMC” value in the assay on PBMC was found to be 18.2596%.

With `CC[C@H](C)[C@H](N)C(=O)N[C@@H](CC(N)=O)C(=O)N[C@@H](CC(C)C)C(=O)N[C@@H](CCCCN)C(=O)N[C@@H](C)C(=O)N[C@@H](CC(C)C)C(=O)N[C@@H](C)C(=O)N[C@@H](C)C(=O)N[C@@H](CCC(N)=O)C(=O)N[C@@H](C)C(=O)N[C@@H](CCCCN)C(=O)N[C@@H](CCCCN)C(=O)N[C@H](C(=O)N[C@@H](CC(C)C)C(N)=O)[C@@H](C)CC` [Q9], the “Average (percentage cell inhibition), Dmastoparan MDA-MB231 12.5uM” value with MDA-MB-231 cells is 30.6331%. Also, the “Average (percentage cell inhibition), Mastoparan PBMC” value in the assay on PBMC is on record as 2.087%.

Regarding `CC[C@H](C)[C@H](N)C(=O)NCC(=O)N[C@@H](CC(C)C)C(=O)N[C@@H](CCCCN)C(=O)N[C@@H](C)C(=O)N[C@@H](CC(C)C)C(=O)N[C@@H](C)C(=O)N[C@@H](C)C(=O)N[C@@H](CC(C)C)C(=O)N[C@@H](C)C(=O)N[C@@H](CCCCN)C(=O)N[C@@H](CCCCN)C(=O)N[C@H](C(=O)N[C@@H](CC(C)C)C(N)=O)[C@@H](C)CC` [G2], the “Average (percentage cell inhibition), Dmastoparan MDA-MB231 12.5uM” value in the assay on MDA-MB-231 cells is listed as 71.0378%. Moreover, the “Average (percentage cell inhibition), Mastoparan PBMC” value in the assay with PBMC was 15.6884%.

`CC[C@H](C)[C@H](N)C(=O)N[C@@H](CC(N)=O)C(=O)N[C@@H](CC(C)C)C(=O)N[C@@H](CCCCN)C(=O)N[C@@H](C)C(=O)N[C@@H](CC(C)C)C(=O)N[C@@H](C)C(=O)N[C@@H](C)C(=O)N[C@@H](CC(C)C)C(=O)N1CCC[C@H]1C(=O)N[C@@H](CCCCN)C(=O)N[C@@H](CCCCN)C(=O)N[C@H](C(=O)N[C@@H](CC(C)C)C(N)=O)[C@@H](C)CC` [P10]: the “Average (percentage cell inhibition), Dmastoparan MDA-MB231 12.5uM” value in the assay on MDA-MB-231 cells stood at 28.7019%. In addition, the “Average (percentage cell inhibition), Mastoparan PBMC” value with PBMC is reported as -7.837%.

Regarding `CC[C@H](C)[C@H](N)C(=O)N[C@@H](CC(N)=O)C(=O)N[C@@H](CC(C)C)C(=O)N[C@@H](CCCCN)C(=O)N[C@@H](C)C(=O)N[C@@H](CC(C)C)C(=O)N[C@H](C(=O)N[C@@H](C)C(=O)N[C@@H](CC(C)C)C(=O)N[C@@H](C)C(=O)N[C@@H](CCCCN)C(=O)N[C@@H](CCCCN)C(=O)N[C@H](C(=O)N[C@@H](CC(C)C)C(N)=O)[C@@H](C)CC)C(C)C` [V7], in the assay with MDA-MB-231 cells, the “Average (percentage cell inhibition), Dmastoparan MDA-MB231 12.5uM” value was 57.1739%. The “Average (percentage cell inhibition), Mastoparan PBMC” value in the assay with PBMC turned out to be 22.1422%.

On to `CC[C@H](C)[C@H](N)C(=O)N[C@@H](CC(N)=O)C(=O)N[C@@H](CC(C)C)C(=O)N[C@@H](CCCCN)C(=O)N[C@@H](C)C(=O)N[C@@H](CC(C)C)C(=O)N[C@@H](C)C(=O)N[C@@H](C)C(=O)N[C@@H](CC(C)C)C(=O)N[C@@H](C)C(=O)N[C@@H](CCCCN)C(=O)N[C@@H](CCCCN)C(=O)N[C@H](C(=O)N[C@@H](Cc1ccc(O)cc1)C(N)=O)[C@@H](C)CC` [Y14], for which the “Average (percentage cell inhibition), Dmastoparan MDA-MB231 12.5uM” value with MDA-MB-231 cells was found to be 29.2623%. In addition, the “Average (percentage cell inhibition), Mastoparan PBMC” value in the assay on PBMC is given as -0.4376%.

On to `CC[C@H](C)[C@H](N)C(=O)N[C@@H](CC(N)=O)C(=O)N[C@@H](CC(C)C)C(=O)N[C@@H](CCCCN)C(=O)N[C@@H](C)C(=O)N[C@@H](CC(C)C)C(=O)N[C@@H](C)C(=O)N[C@H](C(=O)N[C@@H](CC(C)C)C(=O)N[C@@H](C)C(=O)N[C@@H](CCCCN)C(=O)N[C@@H](CCCCN)C(=O)N[C@H](C(=O)N[C@@H](CC(C)C)C(N)=O)[C@@H](C)CC)[C@@H](C)CC` [I8], for which, in the assay with MDA-MB-231 cells, the “Average (percentage cell inhibition), Dmastoparan MDA-MB231 12.5uM” value is recorded as 40.0855%. In the assay on PBMC, the “Average (percentage cell inhibition), Mastoparan PBMC” value stood at 17.9616%.

Take `CC[C@H](C)[C@H](N)C(=O)N[C@@H](CC(N)=O)C(=O)N[C@@H](CC(C)C)C(=O)N[C@@H](CCCCN)C(=O)N[C@@H](C)C(=O)N1CCC[C@H]1C(=O)N[C@@H](C)C(=O)N[C@@H](C)C(=O)N[C@@H](CC(C)C)C(=O)N[C@@H](C)C(=O)N[C@@H](CCCCN)C(=O)N[C@@H](CCCCN)C(=O)N[C@H](C(=O)N[C@@H](CC(C)C)C(N)=O)[C@@H](C)CC` [P6]: the “Average (percentage cell inhibition), Dmastoparan MDA-MB231 12.5uM” value with MDA-MB-231 cells is given as -16.4349%. In the assay on PBMC, the “Average (percentage cell inhibition), Mastoparan PBMC” value is reported as -8.854%.

`CC[C@H](C)[C@H](N)C(=O)N[C@@H](CC(N)=O)C(=O)N[C@@H](CC(C)C)C(=O)N[C@@H](CCCCN)C(=O)N[C@@H](C)C(=O)N[C@@H](CC(C)C)C(=O)N[C@@H](C)C(=O)N[C@@H](C)C(=O)N[C@@H](CC(C)C)C(=O)N[C@@H](CCCCN)C(=O)N[C@@H](CCCCN)C(=O)N[C@@H](CCCCN)C(=O)N[C@H](C(=O)N[C@@H](CC(C)C)C(N)=O)[C@@H](C)CC` [K10]: in the assay with MDA-MB-231 cells, the “Average (percentage cell inhibition), Dmastoparan MDA-MB231 12.5uM” value was 22.5673%. In addition, the “Average (percentage cell inhibition), Mastoparan PBMC” value with PBMC stood at 0.05559%.

Consider `CC[C@H](C)[C@H](N)C(=O)N[C@@H](CC(N)=O)C(=O)N[C@@H](CC(C)C)C(=O)N[C@@H](CCC(N)=O)C(=O)N[C@@H](C)C(=O)N[C@@H](CC(C)C)C(=O)N[C@@H](C)C(=O)N[C@@H](C)C(=O)N[C@@H](CC(C)C)C(=O)N[C@@H](C)C(=O)N[C@@H](CCCCN)C(=O)N[C@@H](CCCCN)C(=O)N[C@H](C(=O)N[C@@H](CC(C)C)C(N)=O)[C@@H](C)CC` [Q4], for which the “Average (percentage cell inhibition), Dmastoparan MDA-MB231 12.5uM” value in the assay with MDA-MB-231 cells came to 34.9808%. Also, the “Average (percentage cell inhibition), Mastoparan PBMC” value in the assay on PBMC is -3.9555%.

Consider `CC[C@H](C)[C@H](N)C(=O)N[C@@H](CC(N)=O)C(=O)N[C@@H](CC(C)C)C(=O)N[C@@H](CCCCN)C(=O)N[C@@H](C)C(=O)N[C@@H](CC(C)C)C(=O)N[C@@H](C)C(=O)N[C@@H](C)C(=O)N[C@@H](CC(C)C)C(=O)N[C@@H](C)C(=O)N[C@H](C(=O)N[C@@H](CCCCN)C(=O)N[C@H](C(=O)N[C@@H](CC(C)C)C(N)=O)[C@@H](C)CC)C(C)C` [V11], for which, in the assay on MDA-MB-231 cells, the “Average (percentage cell inhibition), Dmastoparan MDA-MB231 12.5uM” value stood at 50.781%. Moreover, the “Average (percentage cell inhibition), Mastoparan PBMC” value in the assay with PBMC was 14.2972%.

Consider `CC[C@H](C)[C@H](N)C(=O)N[C@@H](CC(N)=O)C(=O)N[C@@H](CC(C)C)C(=O)N[C@@H](CCCCN)C(=O)N[C@@H](CO)C(=O)N[C@@H](CC(C)C)C(=O)N[C@@H](C)C(=O)N[C@@H](C)C(=O)N[C@@H](CC(C)C)C(=O)N[C@@H](C)C(=O)N[C@@H](CCCCN)C(=O)N[C@@H](CCCCN)C(=O)N[C@H](C(=O)N[C@@H](CC(C)C)C(N)=O)[C@@H](C)CC` [S5], for which the “Average (percentage cell inhibition), Dmastoparan MDA-MB231 12.5uM” value with MDA-MB-231 cells amounted to 26.0666%. For the same compound, the “Average (percentage cell inhibition), Mastoparan PBMC” value in the assay on PBMC came out at 9.929%.
